For one molecule, Mean tumor regression results are on record in US20250345328A1, “METHODS OF TREATING A RAS RELATED DISEASE OR DISORDER” (Revolution Medicines, Inc., priority 2023, published 2025).

Structures are written as SMILES.

The test system of this test is human KRAS^G12C NSCLC NCI-H2122 xenograft tumors. Put plainly: NCI-H2122 xenograft, Compound A plus RMC-6291 combination. The format is in vivo. Conditions: immune-deficient mice; repeated daily oral administration. The protocol:
The antitumor activity of Compound A in combination with RMC-6291 was evaluated using immune-deficient mice bearing human KRAS^G12C NSCLC NCI-H2122 xenograft tumors.

In the case of `CCn1c(-c2cccnc2[C@H](C)OC)c2c3cc(ccc31)N1CCO[C@@H](C[C@H](NC(=O)[C@H](C(C)C)N(C)C(=O)C3(F)CCN(C(=O)C#CC(C)(C)N(C)C)CC3)C(=O)N3CCC[C@H](N3)C(=O)OCC(C)(C)C2)C1` [RMC-6291], the Mean tumor regression entry is recorded as “mean tumor regressions were not achieved”.
